Laboratory results published in ChEMBL document CHEMBL3286374, “Muchimangins G-J, fully substituted xanthones with a diphenylmethyl substituent, from Securidaca longepedunculata” (J Nat Prod, 2014).
Active and inactive are the calls of the source. The rule behind the calls is not given here.

Key:
PANC-1 [1] = assay: Cytotoxicity against human PANC1 cells in nutrient-rich DMEM media by WST8 assay; assay type: functional, cell-based
PANC-1 [2] = assay: Cytotoxicity against human PANC1 cells in nutrient-deprived NDM media by WST8 assay; assay type: functional, cell-based

Row | Compound | Activity (PANC-1 [1]) | Activity (PANC-1 [2])
1 | COc1cc(OC)c(C(c2ccccc2)c2c(O)c(OC)c3oc4c(OC)c(O)c(OC)c(O)c4c(=O)c3c2O)cc1OC (stereo not drawn) | inactive | inactive
2 | COc1cc(OC)c(C(c2ccccc2)c2c(O)c(OC)c3oc4c(OC)c(OC)c(OC)c(O)c4c(=O)c3c2O)cc1OC (stereo not drawn) | inactive | inactive
3 | COc1cc(OC)c(C(c2ccccc2)c2c(O)c(OC)c3oc4c(O)c(OC)c(OC)c(OC)c4c(=O)c3c2O)cc1OC (stereo not drawn) | inactive | inactive
4 | COc1cc(OC)c(C(c2ccccc2)c2c(O)c(OC)c3oc4c(OC)c5c(c(OC)c4c(=O)c3c2O)OCO5)cc1OC (stereo not drawn) | inactive | inactive
